System: drug-resistant Mycobacterium tuberculosis
Conditions: peptide 10 micrograms per ml, seven days

SMILES: CSCC[C@H](NC(=O)[C@H](CC(C)C)NC(=O)CNC(=O)[C@@H](NC(=O)[C@H](Cc1ccccc1)NC(=O)[C@H](Cc1ccccc1)NC(=O)[C@H](CC(=O)O)NC(=O)[C@H](Cc1c[nH]cn1)NC(=O)[C@H](CCSC)NC(=O)[C@@H](N)CC(=O)O)C(C)C)C(N)=O [Neurokinin B]
- % inhibition: 0.0%

Reference: patent publication US20100204140A1, “USE OF A PEPTIDE AS A THERAPEUTIC AGENT” (priority 2007, published 2010)
